Measurements taken from PMC9103351, “Effects of the Bark Resin Extract of Garcinia nigrolineata on Chronic Stress-Induced Memory Deficit in Mice Model and the In Vitro Monoamine Oxidases and β-Amyloid Aggregation Inhibitory Activities of Its Prenylated Xanthone Constituents” (Molecules, 2022).

Columns and labels:
Type in all cases: in vivo, ICR mice
[1] = tested on: UCMS mice; experiment: Novel Object Recognition Test (NORT) in UCMS mice; conditions: 100 mg/kg/day p.o.
Description: (§1) Five-week-old male ICR mice (weight: 20–30 g), which were acquired from Nomura Siam International (Pathumwan, Bangkok, Thailand), were maintained at the Animal Unit of the Faculty of Pharmaceutical Sciences, Khon Kaen University. Mice were cared for in accordance with the Guiding Principles for the Care and Use of Animals (NIH Publications No. 80–23, revised in 2011). The facilities sustained a 12 h light/dark cycle, constant temperature (22 ± 2 °C), and humidity (45 ± 2%), with full access to food and drink. The current research was authorized by the Animal Ethics Committee for Use and Care of Khon Kaen University (IACUC-KKU-121/64)
(§2) Mice in the stress groups received mild stressors for 6 weeks. […]
The NORT is used to investigate the spatial recognition memory associated with the ability to discriminate between two sets of objects that differ in texture, color, and shape. […] The mouse was free to explore the objects for 5 min and the total time spent exploring each object and the percentage discrimination index were recorded. […] The exploration ratio was calculated according to the following equation:% Discrimination index = [(TN − TF)/(TN + TF)] × 100 where, TN = time devoted to the novel object, TF = time devoted to the familiar object.

[2] = tested on: UCMS mice; experiment: Y-maze test in UCMS mice; conditions: 100 mg/kg/day p.o., vs vehicle-treated UCMS group
Description: as §1, §2
Y-maze test was used to evaluate spontaneous alternation related to a sudden recall, a performance that was previously described by Kraeuter et al. with some modification. […] Mice were allowed to explore the maze for 4 min, during which their number and sequence of arms visits and spontaneous alternations were recorded. […] The measure of the animal recalling a memory is the percentage alternation, which was calculated by the following equation:% Alternation = [(Number of alternations)/(Total arm entries − 2)] × 100

[3] = tested on: UCMS mice; experiment: Lipid peroxidation (TBARs, MDA) in frontal cortex and hippocampus of UCMS mice; conditions: 100 mg/kg/day
Description: as §1, §2
The lipid peroxidation was measured in the homogenates of the hippocampus and frontal cortex by using TBARs assay as previously described by Khamphukdee et al.. […] The intensity of the pink-colored complex MDA-TBA condensation indicated the extent of a lipid peroxidation, and their protein contents were quantified by the Bradford assay. The absorbance of the MDA-TBA complex was measured by UV/Visible spectrophotometer (Perkin Elmer Inc., Waltham, MA, USA) at 532 nm. Levels of the MDA were calculated from the MDA standard and presented as nmol MDA/mg protein.

vitamin E
discrimination index performance (NORT test phase) [1]: significantly ameliorated
percentage of spontaneous alternation (Y-maze) [2]: significantly increased
UCMS-induced lipid peroxidation (MDA level) [3]: significant neuroprotection
